{
  "source": "paper PMC11881559",
  "about": "(Antimicrobial Agents and Chemotherapy, 2025)",
  "origin": "cited, not measured here",
  "key": {"[1]": {"tested_on": "SARS-CoV-2 variants, including the wild-type, Alpha, Beta, Delta, and Omicron strains", "details": "cited from earlier work"}, "[2]": {"tested_on": "Delta variant of the novel coronavirus", "details": "K18-hACE2 mice infected with Delta variant, 300 mg/kg/day; cited from earlier work"}},
  "data": [
    {"smiles": "O=C(NC1CCCC1)C(=O)[C@H](C[C@@H]1CCNC1=O)NC(=O)[C@@H]1[C@H]2CCC[C@H]2CN1C(=O)[C@@H](NC(=O)C(F)(F)F)C1CCCCC1", "note": "[RAY1216, leritrelvir]", "values": [
      {"measurement": "inhibition of SARS-CoV-2 variants in vitro", "setting": "[1]", "value": "clearly inhibited"},
      {"measurement": "lung viral titers and virus-induced pathology", "setting": "[2]", "value": "significantly decreased lung viral titers and reduced virus-induced pathology"}
    ]}
  ]
}
